Data: patent publication US9340590B2 (priority 2011, dated 2016)
Where two headings read alike, the source gives them in different places. Positions of bridges follow the written chain, without caps; N, C: chain ends. Residues, ends and D or L forms follow the SMILES beside them.

What was measured:
Experiment in all cases: cell-based
[1] = molecular target: hNav1.3 (Homo sapiens, UniProt Q9NY46); settings: IonWorks Quattro, use-dependent protocol, hNav1.3; read-out: IWQ Use Nav1.3
[2] = molecular target: hNav1.5 (Homo sapiens, UniProt Q14524)
[3] = molecular target: hNav1.7 (Homo sapiens, UniProt Q15858); format: cell-based
[4] = IonWorks Quattro, use-dependent protocol, hNav1.5, read-out: IWQ Use Nav1.5
[5] = IonWorks Quattro, use-dependent protocol, hNav1.7, read-out: IWQ Use Nav1.7

Sequence of hNav1.5 (Q14524 whole entry, looked up): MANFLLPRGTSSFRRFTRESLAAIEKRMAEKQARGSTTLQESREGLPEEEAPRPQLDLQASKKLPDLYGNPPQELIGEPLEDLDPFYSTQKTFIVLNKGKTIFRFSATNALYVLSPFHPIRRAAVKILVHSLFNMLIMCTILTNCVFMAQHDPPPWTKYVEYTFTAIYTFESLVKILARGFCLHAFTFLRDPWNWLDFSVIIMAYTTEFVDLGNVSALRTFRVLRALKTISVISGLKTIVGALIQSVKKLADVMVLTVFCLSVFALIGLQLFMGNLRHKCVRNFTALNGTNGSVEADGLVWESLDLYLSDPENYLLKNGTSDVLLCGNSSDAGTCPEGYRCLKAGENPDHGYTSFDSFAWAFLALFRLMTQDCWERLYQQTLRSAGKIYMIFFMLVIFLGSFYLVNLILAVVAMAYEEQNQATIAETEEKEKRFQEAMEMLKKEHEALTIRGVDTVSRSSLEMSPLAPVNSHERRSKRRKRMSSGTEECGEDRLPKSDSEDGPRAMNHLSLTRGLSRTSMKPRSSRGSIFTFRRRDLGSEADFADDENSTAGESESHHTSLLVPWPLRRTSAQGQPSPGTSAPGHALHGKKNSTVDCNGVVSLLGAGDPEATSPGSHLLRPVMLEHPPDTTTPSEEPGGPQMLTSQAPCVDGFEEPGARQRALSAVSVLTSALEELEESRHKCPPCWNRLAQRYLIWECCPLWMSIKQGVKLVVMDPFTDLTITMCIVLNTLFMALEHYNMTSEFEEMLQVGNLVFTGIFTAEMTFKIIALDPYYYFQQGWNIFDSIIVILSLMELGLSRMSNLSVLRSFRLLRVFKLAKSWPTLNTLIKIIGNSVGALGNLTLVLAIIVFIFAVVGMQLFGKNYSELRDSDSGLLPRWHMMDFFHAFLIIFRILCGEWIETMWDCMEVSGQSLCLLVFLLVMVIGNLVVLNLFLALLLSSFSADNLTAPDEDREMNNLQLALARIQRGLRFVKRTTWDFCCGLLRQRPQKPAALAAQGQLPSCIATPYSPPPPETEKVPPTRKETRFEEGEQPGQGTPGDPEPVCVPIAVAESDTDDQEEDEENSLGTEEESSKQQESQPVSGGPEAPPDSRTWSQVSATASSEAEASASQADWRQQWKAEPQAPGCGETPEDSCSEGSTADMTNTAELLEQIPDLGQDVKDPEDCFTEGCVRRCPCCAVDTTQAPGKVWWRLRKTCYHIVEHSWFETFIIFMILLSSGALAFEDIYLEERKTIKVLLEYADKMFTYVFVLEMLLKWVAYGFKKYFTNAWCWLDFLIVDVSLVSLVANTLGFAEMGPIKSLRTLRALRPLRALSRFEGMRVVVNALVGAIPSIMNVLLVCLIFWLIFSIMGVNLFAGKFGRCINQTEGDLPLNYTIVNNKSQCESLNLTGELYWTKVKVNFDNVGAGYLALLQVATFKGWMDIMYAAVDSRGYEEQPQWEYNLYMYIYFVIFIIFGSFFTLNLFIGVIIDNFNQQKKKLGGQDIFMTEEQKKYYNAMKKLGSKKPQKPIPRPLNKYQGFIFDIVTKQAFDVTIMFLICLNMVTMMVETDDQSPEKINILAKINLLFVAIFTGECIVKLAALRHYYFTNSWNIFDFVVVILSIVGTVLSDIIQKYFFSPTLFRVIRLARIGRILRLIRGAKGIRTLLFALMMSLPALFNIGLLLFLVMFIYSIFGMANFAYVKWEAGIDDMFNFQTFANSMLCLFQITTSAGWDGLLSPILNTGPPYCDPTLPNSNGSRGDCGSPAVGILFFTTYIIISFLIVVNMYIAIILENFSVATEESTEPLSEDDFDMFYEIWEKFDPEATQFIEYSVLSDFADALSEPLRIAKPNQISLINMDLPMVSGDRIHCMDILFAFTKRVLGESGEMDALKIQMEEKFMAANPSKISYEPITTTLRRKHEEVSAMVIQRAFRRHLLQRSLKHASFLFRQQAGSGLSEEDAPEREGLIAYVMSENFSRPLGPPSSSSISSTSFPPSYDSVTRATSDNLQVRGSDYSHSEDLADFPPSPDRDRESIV
Sequence of hNav1.3 (Q9NY46 whole entry, looked up): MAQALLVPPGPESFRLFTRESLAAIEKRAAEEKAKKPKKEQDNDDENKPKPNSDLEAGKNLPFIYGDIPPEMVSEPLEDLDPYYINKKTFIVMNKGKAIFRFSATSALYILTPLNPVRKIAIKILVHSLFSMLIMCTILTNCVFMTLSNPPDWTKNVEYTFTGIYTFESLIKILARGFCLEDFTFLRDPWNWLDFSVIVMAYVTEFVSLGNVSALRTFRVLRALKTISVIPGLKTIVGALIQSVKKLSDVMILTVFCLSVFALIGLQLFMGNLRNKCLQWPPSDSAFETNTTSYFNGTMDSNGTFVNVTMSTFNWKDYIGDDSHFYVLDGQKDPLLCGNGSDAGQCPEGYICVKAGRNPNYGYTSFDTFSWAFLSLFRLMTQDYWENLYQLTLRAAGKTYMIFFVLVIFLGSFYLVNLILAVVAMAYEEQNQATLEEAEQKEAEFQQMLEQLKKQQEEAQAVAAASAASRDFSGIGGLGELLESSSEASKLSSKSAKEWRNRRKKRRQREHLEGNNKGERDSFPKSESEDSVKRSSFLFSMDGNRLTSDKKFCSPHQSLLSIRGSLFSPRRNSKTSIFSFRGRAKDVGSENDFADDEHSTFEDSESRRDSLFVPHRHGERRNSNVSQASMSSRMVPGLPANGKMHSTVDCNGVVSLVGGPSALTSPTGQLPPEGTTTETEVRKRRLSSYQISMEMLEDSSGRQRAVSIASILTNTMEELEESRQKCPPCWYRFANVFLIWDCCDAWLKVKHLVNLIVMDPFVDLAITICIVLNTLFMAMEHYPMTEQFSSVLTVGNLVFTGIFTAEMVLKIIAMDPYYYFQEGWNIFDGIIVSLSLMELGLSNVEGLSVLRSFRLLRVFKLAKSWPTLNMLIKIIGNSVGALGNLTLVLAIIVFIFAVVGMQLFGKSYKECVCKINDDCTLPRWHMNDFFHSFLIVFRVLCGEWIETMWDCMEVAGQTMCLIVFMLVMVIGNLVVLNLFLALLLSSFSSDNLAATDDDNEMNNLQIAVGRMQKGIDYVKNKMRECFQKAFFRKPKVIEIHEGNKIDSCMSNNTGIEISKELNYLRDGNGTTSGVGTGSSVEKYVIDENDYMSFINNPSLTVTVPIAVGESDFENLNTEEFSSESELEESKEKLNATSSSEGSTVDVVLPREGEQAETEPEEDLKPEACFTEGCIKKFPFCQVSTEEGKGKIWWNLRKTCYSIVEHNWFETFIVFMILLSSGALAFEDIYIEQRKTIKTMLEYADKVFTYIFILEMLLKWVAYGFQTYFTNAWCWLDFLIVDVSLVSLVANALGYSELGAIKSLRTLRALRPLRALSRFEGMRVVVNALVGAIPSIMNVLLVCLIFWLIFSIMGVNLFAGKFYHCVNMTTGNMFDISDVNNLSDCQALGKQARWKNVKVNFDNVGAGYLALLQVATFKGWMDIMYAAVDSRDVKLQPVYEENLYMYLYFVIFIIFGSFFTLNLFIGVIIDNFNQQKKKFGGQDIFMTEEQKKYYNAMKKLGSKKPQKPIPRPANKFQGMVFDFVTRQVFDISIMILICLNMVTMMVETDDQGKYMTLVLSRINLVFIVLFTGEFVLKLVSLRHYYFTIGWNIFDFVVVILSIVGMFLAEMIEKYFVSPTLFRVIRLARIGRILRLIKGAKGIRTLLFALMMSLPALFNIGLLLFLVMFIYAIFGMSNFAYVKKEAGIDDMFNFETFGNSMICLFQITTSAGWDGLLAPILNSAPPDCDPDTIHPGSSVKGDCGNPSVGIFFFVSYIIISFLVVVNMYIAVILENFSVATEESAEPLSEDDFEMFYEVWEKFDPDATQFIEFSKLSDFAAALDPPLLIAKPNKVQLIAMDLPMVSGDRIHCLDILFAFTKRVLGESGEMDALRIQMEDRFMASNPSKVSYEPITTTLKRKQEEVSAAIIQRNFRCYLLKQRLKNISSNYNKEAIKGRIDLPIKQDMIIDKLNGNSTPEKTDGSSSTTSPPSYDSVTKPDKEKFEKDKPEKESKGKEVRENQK

Row | SMILES | IC50 [1] [nM] | IC50 [2, 4] [µM] | IC50 [3, 5] [nM] | IC50 [3] [nM] | IC50 ([2]; IWQ Use Nav1.5) [µM]
1 | CC[C@@H]1NC(=O)CNC(=O)[C@H](CC(C)C)NC(=O)[C@@H](NC(=O)[C@@H](N)CC(=O)O)CSSC[C@@H]2NC(=O)[C@@H]3CSSC[C@@H](C(=O)N[C@@H](CCCCN)C(=O)N[C@@H](Cc4ccc(O)cc4)C(=O)N[C@H](C(=O)N[C@@H](Cc4ccccc4)C(N)=O)C(C)C)NC(=O)[C@H](Cc4c[nH]c5ccccc45)NC(=O)[C@H](CCCCN)NC(=O)[C@H](Cc4cnc[nH]4)NC(=O)[C@H]([C@@H](C)O)NC(=O)[C@H](CCCNC(=N)N)NC(=O)[C@H](CO)NC(=O)[C@H](CSSC[C@H](NC(=O)[C@H](CCCCN)NC(=O)[C@H](CCCNC(=N)N)NC(=O)[C@H](CCSC)NC1=O)C(=O)N[C@@H]([C@@H](C)CC)C(=O)N1CCC[C@H]1C(=O)N[C@@H](CC(=O)O)C(=O)N[C@@H](CC(N)=O)C(=O)N[C@@H](CC(=O)O)C(=O)N[C@@H](CCCCN)C(=O)N3)NC(=O)[C@H](C(C)C)NC(=O)[C@H](CC(C)C)NC(=O)[C@H](CC(N)=O)NC(=O)[C@@H]1CCCN1C(=O)[C@H](CCCNC(=N)N)NC2=O [compound 649] | 1300 | > 5 | 690 |  | 
2 | CCC[C@@H]1NC(=O)CNC(=O)[C@H](CC(C)C)NC(=O)[C@@H](NC(=O)[C@@H](N)CC(=O)O)CSSC[C@@H]2NC(=O)[C@@H]3CSSC[C@@H](C(=O)N[C@@H](CCCCN)C(=O)N[C@@H](Cc4ccc(O)cc4)C(=O)N[C@H](C(=O)N[C@@H](Cc4ccccc4)C(N)=O)C(C)C)NC(=O)[C@H](Cc4c[nH]c5ccccc45)NC(=O)[C@H](CCCCN)NC(=O)[C@H](Cc4cnc[nH]4)NC(=O)[C@H]([C@@H](C)O)NC(=O)[C@H](CCCNC(=N)N)NC(=O)[C@H](CO)NC(=O)[C@H](CSSC[C@H](NC(=O)[C@H](CCCCN)NC(=O)[C@H](CCCNC(=N)N)NC(=O)[C@H](CCSC)NC1=O)C(=O)N[C@@H]([C@@H](C)CC)C(=O)N1CCC[C@H]1C(=O)N[C@@H](CC(=O)O)C(=O)N[C@@H](CC(N)=O)C(=O)N[C@@H](CC(=O)O)C(=O)N[C@@H](CCCCN)C(=O)N3)NC(=O)[C@H](C(C)C)NC(=O)[C@H](CC(C)C)NC(=O)[C@H](CC(N)=O)NC(=O)[C@@H]1CCCN1C(=O)[C@H](CCCNC(=N)N)NC2=O [compound 650] | 570 | > 5 |  | 200 | 
3 | CCCC[C@@H]1NC(=O)CNC(=O)[C@H](CC(C)C)NC(=O)[C@@H](NC(=O)[C@@H](N)CC(=O)O)CSSC[C@@H]2NC(=O)[C@@H]3CSSC[C@@H](C(=O)N[C@@H](CCCCN)C(=O)N[C@@H](Cc4ccc(O)cc4)C(=O)N[C@H](C(=O)N[C@@H](Cc4ccccc4)C(N)=O)C(C)C)NC(=O)[C@H](Cc4c[nH]c5ccccc45)NC(=O)[C@H](CCCCN)NC(=O)[C@H](Cc4c[nH]cn4)NC(=O)[C@H]([C@@H](C)O)NC(=O)[C@H](CCCNC(=N)N)NC(=O)[C@H](CO)NC(=O)[C@H](CSSC[C@H](NC(=O)[C@H](CCCCN)NC(=O)[C@H](CCCNC(=N)N)NC(=O)[C@H](CCSC)NC1=O)C(=O)N[C@@H]([C@@H](C)CC)C(=O)N1CCC[C@H]1C(=O)N[C@@H](CC(=O)O)C(=O)N[C@@H](CC(N)=O)C(=O)N[C@@H](CC(=O)O)C(=O)N[C@@H](CCCCN)C(=O)N3)NC(=O)[C@H](C(C)C)NC(=O)[C@H](CC(C)C)NC(=O)[C@H](CC(N)=O)NC(=O)[C@@H]1CCCN1C(=O)[C@H](CCCNC(=N)N)NC2=O [compound 651] | 170 |  | 77 |  | > 5
4 | CC[C@H](C)[C@@H]1NC(=O)[C@@H]2CSSC[C@@H]3NC(=O)[C@H](C(C)C)NC(=O)[C@H](CC(C)C)NC(=O)[C@H](CC(N)=O)NC(=O)[C@@H]4CCCN4C(=O)[C@H](CCCNC(=N)N)NC(=O)[C@H](CSSC[C@H](NC(=O)[C@@H](N)CC(=O)O)C(=O)N[C@@H](CC(C)C)C(=O)NCC(=O)N(C)[C@@H](Cc4ccccc4)C(=O)N[C@@H](CCSC)C(=O)N[C@@H](CCCNC(=N)N)C(=O)N[C@@H](CCCCN)C(=O)N2)NC(=O)[C@H](CSSC[C@@H](C(=O)N[C@@H](CCCCN)C(=O)N[C@@H](Cc2ccc(O)cc2)C(=O)N[C@H](C(=O)N[C@@H](Cc2ccccc2)C(N)=O)C(C)C)NC(=O)[C@H](Cc2c[nH]c4ccccc24)NC(=O)[C@H](CCCCN)NC(=O)[C@H](Cc2c[nH]cn2)NC(=O)[C@H]([C@@H](C)O)NC(=O)[C@H](CCCNC(=N)N)NC(=O)[C@H](CO)NC3=O)NC(=O)[C@H](CCCCN)NC(=O)[C@H](CC(=O)O)NC(=O)[C@H](CC(N)=O)NC(=O)[C@H](CC(=O)O)NC(=O)[C@@H]2CCCN2C1=O [compound 657] | 280 |  | 360 |  | > 5
5 | CC[C@H](C)[C@@H]1NC(=O)[C@@H]2CSSC[C@@H]3NC(=O)[C@H](C(C)C)NC(=O)[C@H](CC(C)C)NC(=O)[C@H](CC(N)=O)NC(=O)[C@@H]4CCCN4C(=O)[C@H](CCCNC(=N)N)NC(=O)[C@H](CSSC[C@H](NC(=O)[C@@H](N)CC(=O)O)C(=O)N[C@@H](CC(C)C)C(=O)NCC(=O)N[C@@H](C(C)(C)C)C(=O)N[C@@H](CC(C)C)C(=O)N[C@@H](CCCNC(=N)N)C(=O)N[C@@H](CCCCN)C(=O)N2)NC(=O)[C@H](CSSC[C@@H](C(=O)N[C@@H](CCCCN)C(=O)N[C@@H](Cc2ccc(O)cc2)C(=O)N[C@H](C(=O)N[C@@H](Cc2ccccc2)C(N)=O)C(C)C)NC(=O)[C@H](Cc2c[nH]c4ccccc24)NC(=O)[C@H](CCCCN)NC(=O)[C@H](Cc2c[nH]cn2)NC(=O)[C@H]([C@@H](C)O)NC(=O)[C@H](CCCNC(=N)N)NC(=O)[C@H](CO)NC3=O)NC(=O)[C@H](CCCCN)NC(=O)[C@H](CC(=O)O)NC(=O)[C@H](CC(N)=O)NC(=O)[C@H](CC(=O)O)NC(=O)[C@@H]2CCCN2C1=O [compound 659] | 580 | > 5 | 260 |  | 
6 | CC[C@H](C)[C@@H]1NC(=O)[C@@H]2CSSC[C@@H]3NC(=O)[C@H](C(C)C)NC(=O)[C@H](CC(C)C)NC(=O)[C@H](CC(N)=O)NC(=O)[C@@H]4CCCN4C(=O)[C@H](CCCNC(=N)N)NC(=O)[C@H](CSSC[C@H](NC(=O)[C@@H](N)CC(=O)O)C(=O)N[C@@H](CC(C)C)C(=O)NCC(=O)N[C@@H](CCC(C)C)C(=O)N[C@@H](CC(C)C)C(=O)N[C@@H](CCCNC(=N)N)C(=O)N[C@@H](CCCCN)C(=O)N2)NC(=O)[C@H](CSSC[C@@H](C(=O)N[C@@H](CCCCN)C(=O)N[C@@H](Cc2ccc(O)cc2)C(=O)N[C@H](C(=O)N[C@@H](Cc2ccccc2)C(N)=O)C(C)C)NC(=O)[C@H](Cc2c[nH]c4ccccc24)NC(=O)[C@H](CCCCN)NC(=O)[C@H](Cc2c[nH]cn2)NC(=O)[C@H]([C@@H](C)O)NC(=O)[C@H](CCCNC(=N)N)NC(=O)[C@H](CO)NC3=O)NC(=O)[C@H](CCCCN)NC(=O)[C@H](CC(=O)O)NC(=O)[C@H](CC(N)=O)NC(=O)[C@H](CC(=O)O)NC(=O)[C@@H]2CCCN2C1=O [compound 660] | 59 | > 5 | 31 |  | 
7 | CC[C@H](C)[C@@H]1NC(=O)[C@@H]2CSSC[C@@H]3NC(=O)[C@H](C(C)C)NC(=O)[C@H](CC(C)C)NC(=O)[C@H](CC(N)=O)NC(=O)[C@@H]4CCCN4C(=O)[C@H](CCCNC(=N)N)NC(=O)[C@H](CSSC[C@H](NC(=O)[C@@H](N)CC(=O)O)C(=O)N[C@@H](CC(C)C)C(=O)NCC(=O)N[C@@H](CC(C)C)C(=O)N[C@@H](CC(C)C)C(=O)N[C@@H](CCCNC(=N)N)C(=O)N[C@@H](CCCCN)C(=O)N2)NC(=O)[C@H](CSSC[C@@H](C(=O)N[C@@H](CCCCN)C(=O)N[C@@H](Cc2ccc(O)cc2)C(=O)N[C@H](C(=O)N[C@@H](Cc2ccccc2)C(N)=O)C(C)C)NC(=O)[C@H](Cc2c[nH]c4ccccc24)NC(=O)[C@H](CCCCN)NC(=O)[C@H](Cc2c[nH]cn2)NC(=O)[C@H]([C@@H](C)O)NC(=O)[C@H](CCCNC(=N)N)NC(=O)[C@H](CO)NC3=O)NC(=O)[C@H](CCCCN)NC(=O)[C@H](CC(=O)O)NC(=O)[C@H](CC(N)=O)NC(=O)[C@H](CC(=O)O)NC(=O)[C@@H]2CCCN2C1=O [compound 661] (H-DCLGLLRKCIPDNDKCCRPNLVCSRTHKWCKYVF-NH2; disulfide 2-17, 9-23, 16-30) | 320 | > 5 | 95 |  | 
8 | CC[C@H](C)[C@@H]1NC(=O)[C@@H]2CSSC[C@@H]3NC(=O)[C@H](C(C)C)NC(=O)[C@H](CC(C)C)NC(=O)[C@H](CC(N)=O)NC(=O)[C@@H]4CCCN4C(=O)[C@H](CCCNC(=N)N)NC(=O)[C@H](CSSC[C@H](NC(=O)[C@@H](N)CC(=O)O)C(=O)N[C@@H](CC(C)C)C(=O)NCC(=O)N[C@@H](Cc4cccs4)C(=O)N[C@@H](CC(C)C)C(=O)N[C@@H](CCCNC(=N)N)C(=O)N[C@@H](CCCCN)C(=O)N2)NC(=O)[C@H](CSSC[C@@H](C(=O)N[C@@H](CCCCN)C(=O)N[C@@H](Cc2ccc(O)cc2)C(=O)N[C@H](C(=O)N[C@@H](Cc2ccccc2)C(N)=O)C(C)C)NC(=O)[C@H](Cc2c[nH]c4ccccc24)NC(=O)[C@H](CCCCN)NC(=O)[C@H](Cc2c[nH]cn2)NC(=O)[C@H]([C@@H](C)O)NC(=O)[C@H](CCCNC(=N)N)NC(=O)[C@H](CO)NC3=O)NC(=O)[C@H](CCCCN)NC(=O)[C@H](CC(=O)O)NC(=O)[C@H](CC(N)=O)NC(=O)[C@H](CC(=O)O)NC(=O)[C@@H]2CCCN2C1=O [compound 662] | 68 | > 5 | 22 |  | 
